Data set [1] concerns Escherichia coli. As to the kind of experiment: Antibacterial activity against Escherichia coli ATCC 25922 after 16 hrs by broth microdilution method. It counts as functional. As to conditions: ATCC 25922, 16 h. On the technique in general: In broth dilution the organism is exposed to a series of concentrations in liquid medium.
The subject of data set [2] is Staphylococcus aureus. As to the kind of experiment: Antibacterial activity against Staphylococcus aureus ATCC 25923 after 16 hrs by broth microdilution method. The class given is functional. As to conditions: ATCC 25923, 16 h.
In data set [3] the test system is Bacillus spizizenii. Nature of the data set: Antibacterial activity against Bacillus subtilis ATCC 6633 after 16 hrs by broth microdilution method. The class given is functional. As to conditions: ATCC 6633, 16 h.
Data set [4] is described as follows: Therapeutic index, ratio of HC50 for human erythrocytes to MIC for Bacillus subtilis ATCC 6633. As to conditions: read-out: TI.
Data set [5] is described as follows: Toxicity against human erythrocytes assessed as hemolysis after 1 hr by spectrophotometric analysis. It counts as cell-based, Erythrocyte.
The nature of data set [6]: Therapeutic index, ratio of HC50 for human erythrocytes to MIC for Staphylococcus aureus ATCC 25923. As to conditions: read-out: TI.

Converted amounts (≈) assume the structure as drawn. Where a SMILES comes first, the peptide text is derived from it. A value given as a limit tells only on which side of the number the result lay.

As for `N=C(N)NCCC[C@H](N)C(=O)O` [ARGININE], the MIC in data set [1], in data set [2] and in data set [3] was > 2890 µM each time.

On to `C[C@H]1[C@H](C)CC[C@]2(C(=O)OCc3cn(CC(=O)N[C@@H](CCCNC(=N)N)C(=O)O)nn3)CC[C@]3(C)C(=CC[C@@H]4[C@@]5(C)CC[C@H](O)C(C)(C)[C@@H]5CC[C@]43C)[C@H]12`, for which the selectivity ratio in data set [4] was 16; in data set [6], 8. Besides, the MIC is > 166 µM in data set [1], 10.4 µM (≈ 7.82 µg/mL) in data set [2] and 5.2 µM (≈ 3.91 µg/mL) in data set [3]. Further, the HC50 at 1 h in data set [5] came out at 83 µM.

For the compound `C[C@H]1[C@H](C)CC[C@]2(C(=O)OCc3cn(CC(=O)N[C@@H](CCCNC(=N)N)C(=O)N[C@@H](CCCNC(=N)N)C(=O)N[C@@H](CCCNC(=N)N)C(=O)N[C@@H](CCCNC(=N)N)C(=O)N[C@@H](CCCNC(=N)N)C(=O)O)nn3)CC[C@]3(C)C(=CC[C@@H]4[C@@]5(C)CC[C@H](O)C(C)(C)[C@@H]5CC[C@]43C)[C@H]12`, the selectivity ratio in data set [4] stood at 11; in data set [6] it was 6. Moreover, the minimal inhibitory concentration (MIC) in data set [1] was > 91 µM; in data set [2] it was 5.7 µM (≈ 7.85 µg/mL); in data set [3], 2.8 µM (≈ 3.85 µg/mL). Besides, in data set [5], the HC50 at 1 h came to 25 µM.

For the compound `C=C(C)[C@@H]1CC[C@]2(C(=O)OCc3cn(CC(=O)N[C@@H](CCCNC(=N)N)C(=O)N[C@@H](CCCNC(=N)N)C(=O)N[C@@H](CCCNC(=N)N)C(=O)N[C@@H](CCCNC(=N)N)C(=O)N[C@@H](CCCNC(=N)N)C(=O)N[C@@H](CCCNC(=N)N)C(=O)N[C@@H](CCCNC(=N)N)C(=O)N[C@@H](CCCNC(=N)N)C(=O)O)nn3)CC[C@]3(C)[C@H](CC[C@@H]4[C@@]5(C)CC[C@H](O)C(C)(C)[C@@H]5CC[C@]43C)[C@@H]12`, the MIC was > 68 µM in data set [1], 4.2 µM (≈ 7.75 µg/mL) in data set [2] and 4.2 µM (≈ 7.75 µg/mL) in data set [3].

Consider H-RRRRR-OH, for which the MIC is > 627 µM in data set [1], > 627 µM in data set [2] and 313 µM in data set [3].

For the compound `C[C@H]1[C@H](C)CC[C@]2(C(=O)O)CC[C@]3(C)C(=CC[C@@H]4[C@@]5(C)CC[C@H](O)C(C)(C)[C@@H]5CC[C@]43C)[C@H]12` [URSOLIC ACID], the figures for the MIC in data set [1], in data set [2] and in data set [3] were > 1100 µM, 137 µM (≈ 62.6 µg/mL) and 68 µM (≈ 31.1 µg/mL), respectively.

Take `N=C(N)NCCC[C@H](NC(=O)[C@H](CCCNC(=N)N)NC(=O)[C@@H](N)CCCNC(=N)N)C(=O)O` (H-Arg-Arg-Arg-OH): the MIC was > 1300 µM in data set [1], > 1030 µM in data set [2] and > 1030 µM in data set [3].

Take `NC(N)=NCCC[C@H](NC(=O)[C@@H](N)CCCN=C(N)N)C(=O)O` (H-Arg-Arg-OH): the MIC in data set [1], in data set [2] and in data set [3] was > 1520 µM each time.

In the case of `C=C(C)[C@@H]1CC[C@]2(C(=O)O)CC[C@]3(C)[C@H](CC[C@@H]4[C@@]5(C)CC[C@H](OC(=O)CCc6cn(CC(=O)N[C@@H](CCCNC(=N)N)C(=O)N[C@@H](CCCNC(=N)N)C(=O)O)nn6)C(C)(C)[C@@H]5CC[C@]43C)[C@@H]12`, the selectivity ratio is > 205 in data set [4] and > 103 in data set [6]. Moreover, the MIC in data set [1] was > 131 µM; in data set [2] it was 8.2 µM (≈ 7.79 µg/mL); in data set [3] it was 4.1 µM (≈ 3.9 µg/mL). In data set [5], the HC50 at 1 h was > 841 µM.

`C[C@H]1[C@H](C)CC[C@]2(C(=O)O)CC[C@]3(C)C(=CC[C@@H]4[C@@]5(C)CC[C@H](OC(=O)CCc6cn(CC(=O)N[C@@H](CCCNC(=N)N)C(=O)O)nn6)C(C)(C)[C@@H]5CC[C@]43C)[C@H]12`: the selectivity ratio in data set [4] was 8; in data set [6], 2. The MIC is > 157 µM in data set [1], 78.6 µM (≈ 62.4 µg/mL) in data set [2] and 19.6 µM (≈ 15.6 µg/mL) in data set [3]. The HC50 at 1 h in data set [5] came to 158 µM.

`C[C@H]1[C@H](C)CC[C@]2(C(=O)OCc3cn(CC(=O)N[C@@H](CCCNC(=N)N)C(=O)N[C@@H](CCCNC(=N)N)C(=O)O)nn3)CC[C@]3(C)C(=CC[C@@H]4[C@@]5(C)CC[C@H](O)C(C)(C)[C@@H]5CC[C@]43C)[C@H]12`: the selectivity ratio in data set [4] and in data set [6] was 11 each time. In addition, the MIC in data set [1] is > 138 µM; in data set [2] it was 4.3 µM (≈ 3.91 µg/mL); in data set [3], 4.3 µM (≈ 3.91 µg/mL). The concentration for 50% haemolysis (HC50) at 1 h in data set [5] came to 49 µM.

With `C[C@H]1[C@H](C)CC[C@]2(C(=O)OCc3cn(CC(=O)N[C@@H](CCCNC(=N)N)C(=O)N[C@@H](CCCNC(=N)N)C(=O)N[C@@H](CCCNC(=N)N)C(=O)O)nn3)CC[C@]3(C)C(=CC[C@@H]4[C@@]5(C)CC[C@H](O)C(C)(C)[C@@H]5CC[C@]43C)[C@H]12`, the selectivity ratio in data set [4] and in data set [6] was 8 each time. Further, the MIC is 14.7 µM (≈ 15.6 µg/mL) in data set [1], 3.7 µM (≈ 3.94 µg/mL) in data set [2] and 3.7 µM (≈ 3.94 µg/mL) in data set [3]. In addition, the HC50 at 1 h in data set [5] was found to be 29 µM.

On to `C=C(C)[C@@H]1CC[C@]2(C(=O)O)CC[C@]3(C)[C@H](CC[C@@H]4[C@@]5(C)CC[C@H](OC(=O)CCc6cn(CC(=O)N[C@@H](CCCNC(=N)N)C(=O)N[C@@H](CCCNC(=N)N)C(=O)N[C@@H](CCCNC(=N)N)C(=O)N[C@@H](CCCNC(=N)N)C(=O)N[C@@H](CCCNC(=N)N)C(=O)N[C@@H](CCCNC(=N)N)C(=O)N[C@@H](CCCNC(=N)N)C(=O)N[C@@H](CCCNC(=N)N)C(=O)O)nn6)C(C)(C)[C@@H]5CC[C@]43C)[C@@H]12`, for which the selectivity ratio in data set [4] and in data set [6] was > 103 each time. The figures for the MIC in data set [1], in data set [2] and in data set [3] were > 66 µM, 4.1 µM (≈ 7.74 µg/mL) and 4.1 µM (≈ 7.74 µg/mL), respectively. For the same compound, in data set [5], the HC50 at 1 h is > 424 µM.

For `C[C@H]1[C@H](C)CCC2(C(=O)O)CC[C@]3(C)C(=CC[C@@H]4[C@@]5(C)CC[C@H](OC(=O)CCc6cn(CC(=O)N[C@@H](CCCNC(=N)N)C(=O)N[C@@H](CCCNC(=N)N)C(=O)N[C@@H](CCCNC(=N)N)C(=O)O)nn6)C(C)(C)[C@@H]5CC[C@]43C)[C@H]12` (single isomer, unassigned), the selectivity ratio in data set [4] worked out at 102; in data set [6] it was 51. Moreover, the MIC in data set [1] was > 113 µM; in data set [2], 7 µM (≈ 7.75 µg/mL); in data set [3] it was 3.5 µM (≈ 3.87 µg/mL). Also, the HC50 at 1 h in data set [5] amounted to 360 µM.

For `C[C@H]1[C@H](C)CC[C@]2(C(=O)OCc3cn(CC(=O)N[C@@H](CCCNC(=N)N)C(=O)N[C@@H](CCCNC(=N)N)C(=O)N[C@@H](CCCNC(=N)N)C(=O)N[C@@H](CCCNC(=N)N)C(=O)N[C@@H](CCCNC(=N)N)C(=O)N[C@@H](CCCNC(=N)N)C(=O)N[C@@H](CCCNC(=N)N)C(=O)N[C@@H](CCCNC(=N)N)C(=O)O)nn3)CC[C@]3(C)C(=CC[C@@H]4[C@@]5(C)CC[C@H](O)C(C)(C)[C@@H]5CC[C@]43C)[C@H]12`, the selectivity ratio in data set [4] and in data set [6] was 10 each time. Further, the MIC was > 68 µM in data set [1], 4.2 µM (≈ 7.75 µg/mL) in data set [2] and 4.2 µM (≈ 7.75 µg/mL) in data set [3]. For the same compound, the HC50 at 1 h in data set [5] was found to be 41 µM.

With `N=C(N)NCCC[C@H](NC(=O)[C@H](CCCNC(=N)N)NC(=O)[C@H](CCCNC(=N)N)NC(=O)[C@H](CCCNC(=N)N)NC(=O)[C@H](CCCNC(=N)N)NC(=O)[C@H](CCCNC(=N)N)NC(=O)[C@H](CCCNC(=N)N)NC(=O)[C@@H](N)CCCNC(=N)N)C(=O)O`, the MIC stood at 197 µM (≈ 250 µg/mL) in data set [1], 24.6 µM (≈ 31.2 µg/mL) in data set [2] and 12.3 µM (≈ 15.6 µg/mL) in data set [3].

As for `C=C(C)[C@@H]1CC[C@]2(C(=O)O)CC[C@]3(C)[C@H](CC[C@@H]4[C@@]5(C)CC[C@H](OC(=O)CCc6cn(CC(=O)N[C@@H](CCCNC(=N)N)C(=O)N[C@@H](CCCNC(=N)N)C(=O)N[C@@H](CCCNC(=N)N)C(=O)N[C@@H](CCCNC(=N)N)C(=O)N[C@@H](CCCNC(=N)N)C(=O)O)nn6)C(C)(C)[C@@H]5CC[C@]43C)[C@@H]12`, the selectivity ratio in data set [4] and in data set [6] was 117 each time. For the same compound, the MIC is > 88 µM in data set [1], 2.7 µM (≈ 3.83 µg/mL) in data set [2] and 2.7 µM (≈ 3.83 µg/mL) in data set [3]. For the same compound, in data set [5], the concentration for 50% haemolysis (HC50) at 1 h amounted to 323 µM.

On to `C=C(C)[C@@H]1CC[C@]2(C(=O)O)CC[C@]3(C)[C@H](CC[C@@H]4[C@@]5(C)CC[C@H](OC(=O)CCc6cn(CC(=O)N[C@@H](CCCNC(=N)N)C(=O)O)nn6)C(C)(C)[C@@H]5CC[C@]43C)[C@@H]12`, for which the selectivity ratio in data set [4] is > 51. For the same compound, the MIC in data set [1] was > 157 µM; in data set [2], > 157 µM; in data set [3], 19.6 µM (≈ 15.6 µg/mL). The HC50 at 1 h in data set [5] is > 1010 µM.

Turning to `C[C@H]1[C@H](C)CCC2(C(=O)O)CC[C@]3(C)C(=CC[C@@H]4[C@@]5(C)CC[C@H](OC(=O)CCc6cn(CC(=O)N[C@@H](CCCNC(=N)N)C(=O)N[C@@H](CCCNC(=N)N)C(=O)N[C@@H](CCCNC(=N)N)C(=O)N[C@@H](CCCNC(=N)N)C(=O)N[C@@H](CCCNC(=N)N)C(=O)O)nn6)C(C)(C)[C@@H]5CC[C@]43C)[C@H]12` (single isomer, unassigned), the values for the MIC in data set [1], in data set [2] and in data set [3] were > 88 µM, 5.5 µM (≈ 7.8 µg/mL) and 2.7 µM (≈ 3.83 µg/mL), respectively.

Turning to `C[C@H]1[C@H](C)CC[C@]2(C(=O)O)CC[C@]3(C)C(=CC[C@@H]4[C@@]5(C)CC[C@H](OC(=O)CCc6cn(CC(=O)N[C@@H](CCCNC(=N)N)C(=O)N[C@@H](CCCNC(=N)N)C(=O)O)nn6)C(C)(C)[C@@H]5CC[C@]43C)[C@H]12`, the MIC in data set [1] is > 131 µM; in data set [2] it was 8.2 µM (≈ 7.79 µg/mL); in data set [3] it was 4.1 µM (≈ 3.9 µg/mL).

As a reminder, the MIC is the lowest concentration found to suppress growth. A high value points to a less susceptible organism. As a reminder, the HC50 is the concentration giving 50% haemolysis.

The values are drawn from ChEMBL document CHEMBL3813667, “Triterpene sapogenin-polyarginine conjugates exhibit promising antibacterial activity against Gram-positive strains” (Bioorg Med Chem, 2016).
